# US9211310B2, “Use of a Chinese medicine composition in preparing medicaments for treating secondary prevention of myocardial infarction” (TASLY PHARMACEUTICAL GROUP CO., LTD, priority 2010, dated 2015)
# Test system: patients after acute myocardial infarction
# Experiment: Life quality, Seattle Angina Questionnaire (SAQ), same clinical trial
# Type: in vivo, human
# Conditions: PP, Follow-up
# Description: 3508 patients who were in accordance with the diagnostic standards of AMI for 28 days to 2 years and differentiated as Qi deficiency and blood stagnation syndrome by TCM were studied. 0.5 g Chinese medicine composition prepared by the method of EXAMPLE 1 (Coded as QSYQ) was administrated half an hour after meal, 3 times per day.
# There were 19 questions in the Seattle angina questionnaire (SAQ), including 5 parts: physical limitation (PL), anginal stability (AS), anginal frequency (AF), treatment satisfaction (TS) and disease perception (DP). After being given necessary explanation by doctors, the questions were answered independently by patients.
# They included the overall survival time, angina pectoris score, TCM symptom score and life quality score, where angina pectoris score, TCM symptom score and life quality score were evaluated at randomization, in 1st, 3rd, 6th, 9th, 12th month after treatment and 18th month after follow-up.
# All evaluation results of SAQ were described during the period of observation, and Wilcoxon rank sum test was used for inter-group comparison.
# The evaluation results in the SAQ were depicted in different observations, and inter-group comparison was tested by Wilcoxon Rank-sum test.
# [1] = second line headed Not limited (r60)
smiles,measurement,setting,value
"CC(=O)Oc1ccccc1C(=O)O [Control group, aspirine]","SAQ 4th question, ≧3 times per week: % of patients",,(1.84%)
same,"SAQ 4th question, ≧3 times per week: number of patients",,26
same,"SAQ 4th question, ≧4 times per day: % of patients",,(0.00%)
same,"SAQ 4th question, ≧4 times per day: number of patients",,0
same,"SAQ 5th question, 1-2 times per week: % of patients",,(32.86%)
same,"SAQ 5th question, 1-2 times per week: number of patients",,465
same,"SAQ 5th question, 1-3 times per day: % of patients",,(3.18%)
same,"SAQ 5th question, 1-3 times per day: number of patients",,45
same,"SAQ 5th question, <1 time per week: % of patients",,(31.24%)
same,"SAQ 5th question, <1 time per week: number of patients",,442
same,"SAQ 5th question, No onset: % of patients",,(7.49%)
same,"SAQ 5th question, No onset: number of patients",,106
same,"SAQ 5th question, ≧3 times per week: % of patients",,(25.09%)
same,"SAQ 5th question, ≧3 times per week: number of patients",,355
same,"SAQ 5th question, ≧4 times per day: % of patients",,(0.14%)
same,"SAQ 5th question, ≧4 times per day: number of patients",,2
same,"SAQ 6th question, Dissatisfied: % of patients",,(0.00%)
same,"SAQ 6th question, Dissatisfied: number of patients",,0
same,"SAQ 6th question, Highly satisfied: % of patients",,(28.52%)
same,"SAQ 6th question, Highly satisfied: number of patients",,405
same,"SAQ 6th question, Mostly dissatisfied: % of patients",,(0.63%)
same,"SAQ 6th question, Mostly dissatisfied: number of patients",,9
same,"SAQ 6th question, Mostly satisfied: % of patients",,(62.25%)
same,"SAQ 6th question, Mostly satisfied: number of patients",,884
same,"SAQ 6th question, Partly satisfied: % of patients",,(8.59%)
same,"SAQ 6th question, Partly satisfied: number of patients",,122
same,"SAQ 7th question, Dissatisfied: % of patients",,(0.00%)
same,"SAQ 7th question, Dissatisfied: number of patients",,0
same,"SAQ 7th question, Highly satisfied: % of patients",,(30.75%)
same,"SAQ 7th question, Highly satisfied: number of patients",,436
same,"SAQ 7th question, Mostly dissatisfied: % of patients",,(0.28%)
same,"SAQ 7th question, Mostly dissatisfied: number of patients",,4
same,"SAQ 7th question, Mostly satisfied: % of patients",,(62.13%)
same,"SAQ 7th question, Mostly satisfied: number of patients",,881
same,"SAQ 7th question, Partly satisfied: % of patients",,(6.84%)
same,"SAQ 7th question, Partly satisfied: number of patients",,97
same,"SAQ Question 1-1 Mildly limited, number of patients",,6
same,"SAQ Question 1-1 Mildly limited, percent of patients",,(0.43%)
same,"SAQ Question 1-1 Moderately limited, number of patients",,1
same,"SAQ Question 1-1 Moderately limited, percent of patients",,(0.07%)
same,"SAQ Question 1-1 Not limited, number of patients",,1352
same,"SAQ Question 1-1 Not limited, percent of patients",,(95.95%)
same,"SAQ Question 1-1 Other reasons, number of patients",,5
same,"SAQ Question 1-1 Other reasons, percent of patients",,(0.35%)
same,"SAQ Question 1-1 Severely limited, number of patients",,1
same,"SAQ Question 1-1 Severely limited, percent of patients",,(0.07%)
same,"SAQ Question 1-1 Slightly limited, number of patients",,44
same,"SAQ Question 1-1 Slightly limited, percent of patients",,(3.12%)
same,"SAQ Question 1-2 Mildly limited, number of patients",,8
same,"SAQ Question 1-2 Mildly limited, percent of patients",,(0.57%)
same,"SAQ Question 1-2 Moderately limited, number of patients",,0
same,"SAQ Question 1-2 Moderately limited, percent of patients",,(0.00%)
same,"SAQ Question 1-2 Not limited, number of patients",,1336
same,"SAQ Question 1-2 Not limited, percent of patients",,(94.82%)
same,"SAQ Question 1-2 Severely limited, number of patients",,2
same,"SAQ Question 1-2 Severely limited, percent of patients",,(0.14%)
same,"SAQ Question 1-2 Slightly limited, number of patients",,56
same,"SAQ Question 1-2 Slightly limited, percent of patients",,(3.97%)
same,"SAQ Question 1-6: Mildly limited, patients (%)",,(11.32%)
same,"SAQ Question 1-6: Moderately limited, patients (%)",,(9.19%)
same,"SAQ Question 1-6: Not limited, patients (%)",,(41.95%)
same,"SAQ Question 1-6: Other reasons, patients (%)",,(0.85%)
same,"SAQ Question 1-6: Severely limited, patients (%)",,(2.28%)
same,"SAQ Question 1-6: Slightly limited, patients (%)",,(34.40%)
same,"SAQ Question 1-7: Mildly limited, patients (%)",,(21.92%)
same,"SAQ Question 1-7: Moderately limited, patients (%)",,(6.63%)
same,"SAQ Question 1-7: Not limited, patients (%)",,(22.35%)
same,"SAQ Question 1-7: Other reasons, patients (%)",,(2.60%)
same,"SAQ Question 1-7: Severely limited, patients (%)",,(11.68%)
same,"SAQ Question 1-7: Slightly limited, patients (%)",,(34.82%)
same,"SAQ Question 1-8: Mildly limited, patients (%)",,(24.93%)
same,"SAQ Question 1-8: Moderately limited, patients (%)",,(11.85%)
same,"SAQ Question 1-8: Not limited, patients (%)",,(15.12%)
same,"SAQ Question 1-8: Other reasons, patients (%)",,(3.27%)
same,"SAQ Question 1-8: Severely limited, patients (%)",,(14.75%)
same,"SAQ Question 1-8: Slightly limited, patients (%)",,(30.09%)
same,"SAQ Question 1-2 Not limited, number of patients",[1],7
same,"SAQ Question 1-2 Not limited, percent of patients",[1],(0.50%)
